Tests used:
[1] = biological target: T1, Focal adhesion kinase 1 (Homo sapiens, UniProt Q05397); assay: Inhibition of FAK (unknown origin) incubated for 50 mins in presence of substrate/ATP by HTRF assay
[2] = biological target: T1, Focal adhesion kinase 1; assay: Inhibition of GST-fused FAK (411 to 686 residues)(unknown origin) expressed in baculovirus expression system using poly(Glu:Tyr) as substrate incubated for 5 mins in presence of ATP by K-LISA screening assay
[3] = tested on: A549; assay: cells; conditions: Homo sapiens, A549, 72 h
Description: Antiproliferative activity against human A549 cells assessed as inhibition of cell proliferation incubated for 72 hrs by MTT assay

[4] = tested on: MDA-MB-231; assay: cells; conditions: Homo sapiens, MDA-MB-231, 72 h
Description: Antiproliferative activity against human MDA-MB-231 cells assessed as inhibition of cell proliferation incubated for 72 hrs by MTT assay

T1 sequence (Q05397 whole entry, the tested form may be a part): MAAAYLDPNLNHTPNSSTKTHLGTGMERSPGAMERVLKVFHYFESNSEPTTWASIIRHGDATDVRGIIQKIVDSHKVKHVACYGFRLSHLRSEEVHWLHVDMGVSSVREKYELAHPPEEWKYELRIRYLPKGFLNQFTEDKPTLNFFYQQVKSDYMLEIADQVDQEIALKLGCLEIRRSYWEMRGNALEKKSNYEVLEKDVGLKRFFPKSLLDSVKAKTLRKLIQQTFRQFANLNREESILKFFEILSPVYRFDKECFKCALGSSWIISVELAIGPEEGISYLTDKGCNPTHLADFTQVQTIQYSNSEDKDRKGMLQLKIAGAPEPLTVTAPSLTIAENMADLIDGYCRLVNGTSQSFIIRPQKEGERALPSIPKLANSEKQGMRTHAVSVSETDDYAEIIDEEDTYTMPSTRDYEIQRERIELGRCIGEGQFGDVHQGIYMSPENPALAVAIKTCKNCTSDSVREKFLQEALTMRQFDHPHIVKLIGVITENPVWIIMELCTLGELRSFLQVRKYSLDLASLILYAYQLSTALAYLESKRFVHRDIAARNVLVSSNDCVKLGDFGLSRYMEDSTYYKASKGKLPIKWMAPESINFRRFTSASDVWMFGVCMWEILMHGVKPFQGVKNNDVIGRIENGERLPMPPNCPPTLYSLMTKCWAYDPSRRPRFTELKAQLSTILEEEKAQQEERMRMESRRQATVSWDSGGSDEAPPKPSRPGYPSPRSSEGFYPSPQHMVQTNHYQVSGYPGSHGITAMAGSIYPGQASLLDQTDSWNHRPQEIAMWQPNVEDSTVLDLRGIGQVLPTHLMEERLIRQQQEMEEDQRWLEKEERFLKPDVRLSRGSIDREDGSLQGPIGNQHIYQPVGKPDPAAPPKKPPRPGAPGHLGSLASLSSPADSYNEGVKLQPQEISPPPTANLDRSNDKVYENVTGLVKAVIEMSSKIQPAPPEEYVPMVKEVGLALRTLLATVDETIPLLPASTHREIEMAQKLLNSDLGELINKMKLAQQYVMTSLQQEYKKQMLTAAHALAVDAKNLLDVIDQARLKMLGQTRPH

| SMILES | IC50 [1] | IC50 [2] | IC50 [3] | IC50 [4] |
| --- | --- | --- | --- | --- |
| CP(C)(=O)c1ccccc1Nc1nc(Nc2ccc(C(=O)N3CCC(N4CCOCC4)CC3)cc2)ncc1Cl | 149 nM |  |  |  |
| Cc1cc(C(=O)NC2CCC(O)CC2)ccc1Nc1ncc(Cl)c(Nc2ccccc2P(C)(C)=O)n1 (centres undefined) | 31.7 nM |  |  |  |
| CP(C)(=O)c1ccccc1Nc1nc(Nc2ccc(C(=O)NCC3CCNCC3)cc2)ncc1Cl | 19.7 nM |  |  |  |
| Cc1cc(Nc2ncc(Cl)c(Nc3ccccc3P(C)(C)=O)n2)ccc1C(=O)NC1CCNCC1 | 31.9 nM |  |  |  |
| CNC(=O)c1ccccc1Nc1nc(Nc2ccc(N3CCOCC3)cc2OC)ncc1C(F)(F)F |  | 1.5 nM |  |  |
| CP(C)(=O)c1ccccc1Nc1nc(Nc2ccc(C(=O)N[C@@H]3CCNC3)cc2)ncc1Cl | 16.7 nM |  | 2230 nM | 2120 nM |
| CP(C)(=O)c1ccccc1Nc1nc(Nc2ccc(C(=O)NC3CCNCC3)cc2F)ncc1Cl | 27.5 nM |  |  |  |
| CP(C)(=O)c1ccccc1Nc1nc(Nc2ccc(C(=O)NC3CCNCC3)cc2)ncc1Cl | 8.7 nM |  | 2300 nM | 1620 nM |
| CP(C)(=O)c1ccccc1Nc1nc(Nc2ccc(C(=O)N3CCC[C@H](N)C3)cc2)ncc1Cl | 361 nM |  |  |  |
| Cc1cc(Nc2ncc(Cl)c(Nc3ccccc3P(C)(C)=O)n2)ccc1C(=O)NC1CCC(O)CC1 (centres undefined) | 10.3 nM |  | 520 nM | 7530 nM |
| CN(C(=O)c1ccc(Nc2ncc(Cl)c(Nc3ccccc3P(C)(C)=O)n2)cc1)C1CCCNC1 (centres undefined) | 163 nM |  |  |  |
| COc1cc(C(=O)NC2CCNCC2)ccc1Nc1ncc(Cl)c(Nc2ccccc2P(C)(C)=O)n1 | 6.7 nM |  | 1410 nM | 1340 nM |
| CNC1CCN(C(=O)c2ccc(Nc3ncc(Cl)c(Nc4ccccc4P(C)(C)=O)n3)cc2)CC1 | 413 nM |  |  |  |
| CN(C(=O)c1ccc(Nc2ncc(Cl)c(Nc3ccccc3P(C)(C)=O)n2)cc1)C1CCNCC1 | 119 nM |  |  |  |
| Cc1cc(C(=O)NC2CCNCC2)ccc1Nc1ncc(Cl)c(Nc2ccccc2P(C)(C)=O)n1 | 28.8 nM |  |  |  |
| COc1cc(C(=O)NC2CCC(O)CC2)ccc1Nc1ncc(Cl)c(Nc2ccccc2P(C)(C)=O)n1 (centres undefined) | 15.7 nM |  | 1400 nM | 2490 nM |
| CP(C)(=O)c1ccccc1Nc1nc(Nc2ccc(C(=O)NC3CCC(O)CC3)cc2F)ncc1Cl (centres undefined) | 17.5 nM |  |  |  |
| CP(C)(=O)c1ccccc1Nc1nc(Nc2ccc(C(=O)N3CCC[C@@H](N)C3)cc2)ncc1Cl | 240 nM |  |  |  |
| CP(C)(=O)c1ccccc1Nc1nc(Nc2ccc(C(=O)NC3CCC(O)CC3)c(F)c2)ncc1Cl (centres undefined) | 15.2 nM |  | 390 nM | 2480 nM |
| CP(C)(=O)c1ccccc1Nc1nc(Nc2ccc(C(=O)N3CCNCC3)cc2)ncc1Cl | 328 nM |  |  |  |
| CP(C)(=O)c1ccccc1Nc1nc(Nc2ccc(C(=O)NC3CCNCC3)c(F)c2)ncc1Cl | 15.8 nM |  | 2650 nM | 8690 nM |
| CNC(=O)c1ccccc1Nc1nc(Nc2ccc(N3CCOCC3)cc2OC)ncc1Cl |  |  | 4240 nM | 1020 nM |
| CP(C)(=O)c1ccccc1Nc1nc(Nc2ccc(C(=O)N3CCOCC3)cc2)ncc1Cl | 356 nM |  |  |  |
| CP(C)(=O)c1ccccc1Nc1nc(Nc2ccc(C(=O)N[C@H]3CCNC3)cc2)ncc1Cl | 14.3 nM |  | 2210 nM | 2350 nM |
| CP(C)(=O)c1ccccc1Nc1nc(Nc2ccc(C(=O)NC3CCC(O)CC3)cc2)ncc1Cl (centres undefined) | 9.6 nM |  | 110 nM | 860 nM |

— ChEMBL document CHEMBL5329207, “Design, synthesis, and biological evaluation of diaminopyrimidine derivatives as novel focal adhesion kinase inhibitors” (RSC Med Chem, 2023)
